Experimental data reported in patent US20220313651A1, “INHIBITORS OF ZIKA VIRUS INFECTION” (priority 2019, published 2022).

How the values were obtained:
[1] = tested on: ZIKV rhesus macaque strain MR 766 (1947/Uganda); assay: Plaque reduction inhibition assay in Vero E6 cells, ZIKV MR 766; format: cell-based, Zika virus (ZIKV); conditions: Vero E6 cells; Table 7, gossypol derivatives; read-out: ZIKV strains IC50, MR766
Description: (§1) A plaque reduction inhibition assay was carried out to measure the inhibitory activity of Z-medicaments against infections of ZIKV and DENV. […] The compound-virus mixtures were then transferred to Vero E6 cells (10^5/well) and incubated at 37° C. for 1 h.

[2] = tested on: ZIKV human strain FLR (2015/Colombia); assay: Plaque reduction inhibition assay in Vero E6 cells, ZIKV FLR; format: cell-based, Zika virus (ZIKV); conditions: Vero E6 cells; Table 7, gossypol derivatives; read-out: ZIKV strains IC50, FLR
Description: as §1

[3] = tested on: ZIKV human strain PRVABC59 (2015/Puerto Rico); assay: Plaque reduction inhibition assay in Vero E6 cells, ZIKV PRVABC59; format: cell-based, Zika virus (ZIKV); conditions: Vero E6 cells; Table 7, gossypol derivatives; read-out: ZIKV strains IC50, PRVABC59
Description: as §1

[4] = tested on: ZIKV mosquito strain MEX 2-81 (2016/Mexico); assay: Plaque reduction inhibition assay in Vero E6 cells, ZIKV MEX 2-81; format: cell-based, Zika virus (ZIKV); conditions: Vero E6 cells; Table 7, gossypol derivatives; read-out: ZIKV strains IC50, MEX 2-81
Text: (§2) Vero E6 and LLC-MK2 cells were maintained in Dulbecco's Modified Eagle Medium (DMEM) supplemented with 8% fetal bovine serum (FBS) and penicillin and streptomycin (P/S). C6/36 cells were maintained in Eagle's Minimal Essential Medium (EMEM) supplemented with 5% FBS and P/S. ZIKV strains, including human strains PAN2016 (2016/Panama), R116265 (2016/Mexico), PAN2015 (2015/Panama), FLR (2015/Colombia), R103451 (2015/Honduras), PRVABC59 (2015/Puerto Rico), PLCal_ZV (2013/Thailand), and IbH 30656 (1968/Nigeria), mosquito strain MEX 2-81 (2016/Mexico), and rhesus macaque strain MR 766 (1947/Uganda), were used in the studies. These ZIKV strains were cultured in Vero E6 cells, and viral titers were detected by a standard plaque-forming assay. DENV human strains, including type 1: DENV-1-V1792 (2007/Vietnam), type 2: DENV-2-V594 (2006/Puerto Rico), type 3: DENV-3-V1043 (2006/Puerto Rico), and type 4: DENV-4-PR 06-65-740 (2006/Puerto Rico), were cultured in C6/36 cells, and the viral titers were determined by plaque-forming assay as described above.
as §1, with “h. […] The cells were washed thoroughly with PBS, and overlaid with DMEM containing 1% carboxymethyl cellulose and 2% FBS, followed by in vitro culture at 37° C. for 4-5 days and then staining with 0.5% crystal violet.” for “h.”
(§3) After removal of the unbound compounds by centrifugation after addition of 3% PEG-6000, ZIKV was incubated with Vero E6 cells at 37° C. for 1 h. The cells were then washed with PBS, overlaid with DMEM containing 1% carboxymethyl cellulose and 2% FBS, and cultured at 37° C. for 4-5 days, followed by staining with 0.5% crystal violet.

[5] = tested on: ZIKV human strain IbH 30656 (1968/Nigeria); assay: Plaque reduction inhibition assay in Vero E6 cells, ZIKV IbH 30656; format: cell-based, Zika virus (ZIKV); conditions: Table 7, gossypol derivatives, read-out: ZIKV strains IC50, IbH 30656
Description: as §1

[6] = tested on: ZIKV human strain PLCal_ZV (2013/Thailand); assay: Plaque reduction inhibition assay in Vero E6 cells, ZIKV PLCal_ZV; format: cell-based, Zika virus (ZIKV); conditions: Vero E6 cells; Table 7, gossypol derivatives; read-out: ZIKV strains IC50, PLCal_ZV
Description: as §1

[7] = tested on: ZIKV human strain PAN2016 (2016/Panama); assay: Plaque reduction inhibition assay in Vero E6 cells, ZIKV PAN2016; format: cell-based, Zika virus (ZIKV); conditions: Vero E6 cells; Table 7, gossypol derivatives; read-out: ZIKV strains IC50, PAN2016
Description: as §1

[8] = tested on: ZIKV human strain R116265 (2016/Mexico); assay: Plaque reduction inhibition assay in Vero E6 cells, ZIKV R116265; format: cell-based, Zika virus (ZIKV); conditions: Table 7, gossypol derivatives, read-out: ZIKV strains IC50, R116265
Text: as §2
as §1, with “h. […] The cells were washed thoroughly with PBS, and overlaid with DMEM containing 1% carboxymethyl cellulose and 2% FBS, followed by in vitro culture at 37° C. for 4-5 days and then staining with 0.5% crystal violet.” for “h.”
as §3

[9] = tested on: Vero E6 cells; assay: in vitro; conditions: Vero E6 cells
Description: The cytotoxicity of the Z-medicaments in Vero E6 (ZIKV target cells) was evaluated using the Cell Counting Kit-8 (CCK8).
Briefly, compounds at 2-fold serial dilutions were added to cells (2.0×10^4/well) pre-seeded in 96-well plates. The cells were cultured at 37° C. for 3 days, and incubated with CCK8 solution, followed by measurement of absorbance at 450 nm (A450 value) using microplate reader.

[10] = tested on: ZIKV human strain R103451 (2015/Honduras); assay: Plaque reduction inhibition assay in Vero E6 cells, ZIKV R103451; format: cell-based, Zika virus (ZIKV); conditions: Vero E6 cells; Table 7, gossypol derivatives; read-out: ZIKV strains IC50, R103451
Description: as §1

[11] = tested on: ZIKV human strain PAN2015 (2015/Panama); assay: microbe, parasite or virus in culture; format: cell-based, Zika virus (ZIKV); conditions: Vero E6 cells; Table 7, gossypol derivatives; read-out: ZIKV strains IC50, PAN2015
Text: as §2
as §1, with “h. […] The cells were washed thoroughly with PBS, and overlaid with DMEM containing 1% carboxymethyl cellulose and 2% FBS, followed by in vitro culture at 37° C. for 4-5 days and then staining with 0.5% crystal violet.” for “h.”
as §3

[12] = target: T1, ZIKV EDIII protein (E residues 298-409) (Zika virus, UniProt Q32ZE1, D679E/I627V/V603I/V629A); format: binding; conditions: ELISA
T1 construct: human Fc (C)
Description: (§4) Binding of compounds (NPs) to ZIKV full-length E (FIG. 3A), EDIII (FIG. 3B), and NS2B-NS3 (FIG. 3C) proteins, was detected by ELISA. The percent binding was reported in the presence or absence of serially diluted NPs using the formula (1-[E/EDIII-NP]/[E/EDIII])×100 (for E/EDIII binding) or (1-[NS2B-NS3-NP]/[NS2B-NS3])×100 (for NSEB-NS3 binding). […] The concentrations of ZIKV EDIII and mAbs were 1.5 and 0.5 μg/ml, respectively. […] The concentrations of substrate (Bz-Nle-Lys-Lys-Arg-AMC) and ZIKV NS2B-NS3 protein were 4 μM and 1 μg/ml, respectively. The percent inhibition of protease activity was calculated in the presence or absence of serially diluted compounds using the formula (1-[NS2B-NS3-substrate-NP]/[NS2B-NS3-substrate])×100. The IC50 values were calculated based on the percent inhibition. The data are expressed as mean±s.e.m. (n=4).
(§5) The data are expressed as mean±s.e.m. (n=4), and DMSO was used as negative control. Surface plasmon resonance (SPR) analysis of the binding between ST087010 and ZIKV EDIII (FIG. 6D) or NS2B-NS3 (FIG. 6E) protein was performed. Binding affinity was shown as KD (equilibrium dissociation constant).
(§6) The binding between the Z-medicament and ZIKV full-length E protein, EDIII protein (E residues 298-409 fused with a C-terminal human Fc), or NS2B-NS3 protease was carried out by ELISA. Briefly, ELISA plates were pre-coated with the proteins described above at 4° C. overnight, and blocked with 2% fat-free milk at 37° C. for 2 h. Serial dilutions of the Z-medicament or DMSO (control) were then added to the plates and incubated at 37° C. for 2 h. The plates were washed with PBS containing Tween-20 (PBST), and incubated at 37° C. for 1 h with ZIKV EDIII-specific human mAb ZKA64-LALA (0.5 μg/ml) (for binding to ZIKV full-length E and EDIII proteins), or mouse sera specific to ZIKV NS2B-NS3 (for binding to NS2B-NS3 protease). The plates were washed with PBST, and incubated with horseradish peroxidase (HRP)-conjugated anti-human IgG-Fab (1:3000) or anti-mouse IgG (1:3000) antibody at 37° C. for 1 h. The 3,3′,5,5′-tetramethylbenzidine (TMB) substrate was added to the plates, and the reaction was stopped by 1 N H2SO4. Absorbance at 450 nm (A450 value) was measured by ELISA microplate reader.
Briefly, ELISA plates were coated with each protein (1 μg/ml) at 4° C. overnight, and were then incubated with blocking buffer containing 2% fat-free milk in PBST at 37° C. for 2 h. The above compounds, or DMSO control, at serial dilutions were added to the plates, and incubated at 37° C. for 2 h. […] Absorbance at 450 nm (A450 values) was measured by an ELISA microplate reader. EC50 values were calculated.

[13] = target: ZIKV full-length E protein (Zika virus, UniProt Q32ZE1); assay: ELISA binding to ZIKV full-length E protein
Description: as §4, §5, §6
(§7) Briefly, ELISA plates were coated with each protein (1 μg/ml) at 4° C. overnight, and were then incubated with blocking buffer containing 2% fat-free milk in PBST at 37° C. for 2 h. The above compounds, or DMSO control, at serial dilutions were added to the plates, and incubated at 37° C. for 2 h. After three washes using PBST, the plates were incubated at 37° C. for 2 h with ZIKV EDIII-specific human mAb ZKA64-LALA (0.5 μg/ml) (for binding to ZIKV full-length E or EDIII protein), or ZIKV NS2B-NS3-specific mouse sera (for binding to NS2B-NS3 protein). After further washes, the plates were incubated with HRP-conjugated anti-human IgG-Fab (1:3,000) or anti-mouse IgG (1:3,000) antibody at 37° C. for 1 h. The plates were incubated with substrate TMB, and the reaction was stopped by addition of 1 N H2SO4. Absorbance at 450 nm (A450 values) was measured by an ELISA microplate reader. EC50 values were calculated.

[14] = target: T2, ZIKV NS2B-NS3 protease (Zika virus, UniProt Q32ZE1); assay: ELISA binding to ZIKV NS2B-NS3 protease
T2 construct: 49-97) and NS2 protein (residues 1-185) through a covalent; made in house; host or cells: E. coli
Description: as §4, §5, §6
as §7, with “h.” for “h. The plates were incubated with substrate TMB, and the reaction was stopped by addition of 1 N H2SO4. Absorbance at 450 nm (A450 values) was measured by an ELISA microplate reader. EC50 values were calculated.”

Structure (SMILES) | IC50 [1] [µM] | IC50 [2] [µM] | IC50 [3] [µM] | IC50 [4] [µM] | IC50 [5] [µM] | IC50 [6] [µM] | IC50 [7] [µM] | IC50 [8] [µM] | CC50 ([9]; Table 7, gossypol derivatives) [µM] | IC50 [10] [µM] | IC50 [11] [µM] | Binding to ZIKV EDIII protein (in words) [12] | Binding to ZIKV full-length E protein (in words) [13] | Binding to ZIKV NS2B-NS3 protein (in words) [14] | CC50 ([9]; 3 days, CCK8, Table 1) [µM]
Cc1cc2c(C(C)C)c(O)c(O)c3c2c(c1-c1c(C)cc2c(C(C)C)c(O)c(O)c4c2c1OC4N)OC3N (stereo not shown) [ST069299] | 4.88 ± 0.05 | 3.27 ± 0.25 | 3.33 ± 0.3 | 3.89 ± 0.24 | 2.54 ± 0.44 | 3.98 ± 0.54 | 2.34 ± 0.06 | 2.57 ± 0.2 | 25.9 ± 2.7 | 3.85 ± 0.11 | 2.33 ± 0.1 | – | – | – | –
Cc1cc2nc[nH]c2c(N=Cc2c(O)c(O)c(C(C)C)c3cc(C)c(-c4c(C)cc5c(C(C)C)c(O)c(O)c(C=Nc6c(C)c(C)cc7nc[nH]c67)c5c4O)c(O)c23)c1C [ST092971] | 5.2 ± 0.37 | 6.89 ± 0.05 | 9.1 ± 0.11 | 13.5 ± 0.58 | 5.16 ± 0.21 | 6.72 ± 0.2 | 4.98 ± 0.01 | 7.97 ± 0.17 | 72.1 ± 1.91 | 6.64 ± 0.27 | 5.01 ± 0.36 | – | – | – | –
CC(C)C[C@H](NC(=O)[C@H](Cc1ccccc1)NC(=O)c1cnccn1)B(O)O [Bortezomib, bortezomib, reference compound] | – | – | – | – | – | – | – | – | – | – | – | bound to no ZIKV proteins tested | bound to no ZIKV proteins tested | bound to no ZIKV proteins tested | 17 ± 0.2
CCC(O)/N=C/c1c(O)c(O)c(C(C)C)c2cc(C)c(-c3c(C)cc4c(C(C)C)c(O)c(O)c(/C=N/C(O)CC)c4c3O)c(O)c12 (stereo not shown) [ST005138] | 2.52 ± 0.04 | 3.44 ± 0.18 | 3.89 ± 0.32 | 2.89 ± 0.12 | 2.4 ± 0.27 | 3.87 ± 0.54 | 2.29 ± 0.01 | 3.13 ± 0.29 | 22.82 ± 0.02 | 3.05 ± 0.09 | 2.18 ± 1.19 | – | – | – | –
